Where a name gives a salt, the structure may show the parent alone.

The values below come from patent US12409159B2, “3-hydroxybutyrate alone or in combination for use in the treatment of critical care treatment” (KATHOLIEKE UNIVERSITEIT LEUVEN, priority 2016, dated 2025).

For series [1], the system named is mouse model of prolonged critical illness evoked by sepsis (cecal ligation and puncture). As to the kind of experiment: 5-day mortality in prolonged critically ill mice. The format is in vivo. From the text:
FIG. 10. Effect of 3-hydroxybutyrate injections on 5-day mortality in prolonged critically ill mice. Black line, healthy control mice (15/15 survivors); gray line, parenterally fed critically ill mice (17/20 survivors); dash dot line; parenterally fed critically ill mice receiving 3-hydroxybutyrate (17/21 survivors); dotted line, fasted critically ill mice receiving 3-hydroxybutyrate (14/22 survivors). [PN=parenteral nutrition; 3HB=3-hydroxybutyrate].
(§1) We studied the effect of subcutaneous administration of D,L-3-hydroxybutyrate sodium salt on muscle wasting and weakness in a validated mouse model of prolonged critical illness evoked by sepsis (cecal ligation and puncture followed by resuscitation and intensive medical care). The intervention was studied in the parenterally fed and in the fasted state.
Muscle function was quantified in isolated extensor digitorum longus (EDL) muscle. Critical illness in parenterally fed mice (PN) reduced the absolute maximal force generated by EDL to 57% of healthy controls (p<0.0001) (FIG. 9). However, when parenterally fed critically ill mice received subcutaneous twice daily a bolus of 75 mg of D,L-3-hydroxybutyrate sodium salt (PN+3HB), maximal muscle force improved dramatically to 83% of healthy controls (p<0.0001) (FIG. 9).

Series [2] has the same test system. As to the kind of experiment: Muscle wasting: weight of isolated skeletal muscles (EDL, tibialis anterior) in prolonged critically ill mice. The format is in vivo. The note with it: Example 7, first experiment, fasted critically ill mice. Here is the method:
To control for potential illness- or resuscitation-related changes in fluid content, dry weight of isolated tissues was obtained by a freeze-drying process. Myofiber cross-sectional area (CSA) was quantified on digital microscopy images of hematoxylin and eosin stained paraffin sections with in-house designed algorithms. In addition, the presence of myofiber degeneration, necrosis and inflammation was histologically evaluated. Triglyceride content of tissues was determined with a commercial colorimetric assay (triglyceride quantification kit, Abcam, Cambridge, UK).
as §1
Muscle wasting was evaluated by quantification of the dry weight of isolated skeletal muscles. Muscle weight of the EDL muscle decreased in all critically ill mice, irrespective of hydroxybutyrate treatment or nutritional regime (1.9±0.3 mg for PN, 2.1±0.3 mg for PN+3HB, and 2.0±0.4 mg for fasting+3HB as compared with 2.7±0.3 mg in healthy control mice; p<0.0001) (FIG. 11A). […]
(§2) Muscle mass and function was quantified in isolated extensor digitorum longus (EDL) muscle. […]

For series [3] the test system is unchanged. Kind of series: Ex vivo force measurement of isolated extensor digitorum longus (EDL) muscle, mouse model of prolonged critical illness evoked by sepsis. The format is in vivo, mice.
Text: Mice experiment 2: We examined muscle force ex vivo in lean and diet-induced obese CLP mice. […] Mice were randomly allocated to “healthy control” or “CLP.” As in experiment 1 we had observed that muscle wasting occurred irrespective of feeding, we now only compared parenterally fed with pair-fed lean (n=17) and obese (n=15) healthy mice. Until day 5, 15/18 lean and 15/18 obese CLP mice survived. After 5 days, animals were deeply anesthetized and the m. extensor digitorum longus (EDL) was carefully dissected from both hind limbs for ex vivo muscle force measurements.
as §1
Muscle function was quantified in isolated extensor digitorum longus (EDL) muscle. Critical illness in parenterally fed mice (PN) reduced the absolute maximal force generated by EDL to 57% of healthy controls (p<0.0001) (FIG. 9). […]
as §2

Regarding `CC(O)CC(=O)O` (racemic) [D,L-3-hydroxybutyrate sodium salt], the 5-day survivors is on record as 14/22 in series [1] (fasted critically ill mice) and 17/21 in series [1] (parenterally fed critically ill mice). Further, the risk of death entry in series [1] (fasted critically ill mice, 3HB 75 mg boluses twice daily) was “increased risk of death”. For the same compound, in series [2] (healthy controls 2.7±0.3 mg), the “dry weight of the EDL muscle” value is 2.0 ± 0.4 mg. The “dry weight of the tibialis anterior muscle” value in series [2] (healthy controls 12.4±1.3 mg) turned out to be 8.4 ± 1.8 mg. Besides, the “absolute maximal force generated by EDL, % of healthy controls” value in series [3] (Example 7, first experiment, fasted critically ill mice (survivors), 3HB 75 mg subcutaneous bolus twice daily) is 33%. For the same compound, in series [3] (daily supplementation to parenterally fed mice, prolonged sepsis-induced critical illness), the “effect on muscle weakness and muscle wasting (conclusion)” value is recorded as “largely prevented muscle weakness but not muscle wasting”.
